Counter-ions that a name gives are not always drawn.
Test: Dissolution kinetics in simulated lung fluid (SLF), USP 2 dissolution apparatus
Type: physicochemical
Conditions: SLF pH 7.4, 37° C.
Procedure: The dissolution kinetics of the C21-loaded silica described in Example 5 were characterized in SLF (pH 7.4; Gamble's solution: made up with the salts NaCl, NaHCO3, KCl, MgCl2, CaCl2, Na2SO4, sodium citrate dihydrate, sodium acetate, NaH2PO4 (all from Sigma-Aldrich)) at 37° C. (Reference: Simulated Biological Fluids with Possible Application in Dissolution Testing, Marques et al,. Dissolution technologies August 2011, p15-28) using a USP 2 dissolution apparatus with stirring speed 75 rpm. Free, unloaded C21-sodium salt was used as control. Concentration of drug at set times after release was measured by a UV/vis spectrometer (Cecil 3021) at 267 nm.
The dose of C21 was calculated as 25 mg of C21 in 500 mL of SLF. […] The loaded C21 is fully released and dissolved from the silica particles in around 10 minutes.

solubility in SLF conditions: readily soluble
released in the first 2 minutes (75 rpm, 25 mg of C21 in 500 mL): 96%
SMILES: CCCCOC(=O)NS(=O)(=O)c1sc(CC(C)C)cc1-c1ccc(Cn2ccnc2)cc1 [C21 sodium salt, N-butyloxycarbonyl-3-(4-imidazol-1-ylmethylphenyl)-5-iso-butylthio-phene-2-sulfonamide]

From US20210401807A1, “NEW COMPOSITION COMPRISING AMORPHOUS NANOPOROUS SILICA PARTICLES” (VICORE PHARMA AB, priority 2018, published 2021)
